Data taken from ChEMBL document CHEMBL4806963, “Antagonistic peptides for frizzled-1 and frizzled-2” (2013).
The source made the active and inactive calls. The calls are words filed in the database; no cut-off is given here. Where a SMILES comes first, the peptide text is derived from it.

Tests used:
[1] = molecular target: Frizzled-1 (Homo sapiens) (UniProt Q9UP38); experiment: Antagonist activity at frizzled-1 (unknown origin) expressed in rat C-FIT cells assessed as inhibition of Wnt3a-stimulated cell differentiation changes by measuring alpha-smooth muscle actin gene expression at 10 nM by quantitative RT-PCR analysis; format: functional, cell-based; settings: filed as antagonist
Mus musculus [2] = experiment: Cardioprotective activity against myocardial infarction Swiss mouse model assessed as increase in infarct area thickness in heart at 6 ug/kg/day, sc via osmotic pumps for 2 to 5 weeks by immunohistochemical staining analysis; format: functional, organism-based; settings: dose 6.0 µg/kg/day, time 2-5 weeks
[3] = molecular target: Frizzled-1 (Mus musculus) (UniProt O70421); experiment: Antagonist activity at Wnt3a-stimulaed mouse frizzled-1 expressed in human HEK293superTOP flash cells incubated for 24 hrs by luciferase reporter gene assay; format: cell-based; settings: HEK293, filed as antagonist
[4] = molecular target: Frizzled-5 (Homo sapiens) (UniProt Q13467); experiment: Antagonist activity at Wnt3a-stimulaed frizzled-5 (unknown origin) expressed in human HEK293superTOP flash cells incubated for 24 hrs by luciferase reporter gene assay; format: functional, cell-based; settings: HEK293
[5] = molecular target: Frizzled-1 (Rattus norvegicus) (UniProt Q08463); experiment: Agonist activity at rat frizzled-1 expressed in CHO cells by luciferase reporter gene assay; format: cell-based
[6] = molecular target: Frizzled-2 (Homo sapiens) (UniProt Q14332); experiment: Antagonist activity at Wnt3a-stimulaed human frizzled-2 expressed in human HEK293superTOP flash cells incubated for 24 hrs by luciferase reporter gene assay; format: functional, cell-based; settings: HEK293, filed as antagonist
Mus musculus [7] = experiment: Cardioprotective activity against myocardial infarction Swiss mouse model assessed as reduction in infarction expansion in heart at 6 ug/kg/day, sc via osmotic pumps for 5 weeks by macroscopic analysis; format: functional, organism-based; settings: dose 6.0 µg/kg/day
[8] = molecular target: Frizzled-1 (Rattus norvegicus) (UniProt Q08463); experiment: Agonist activity at rat frizzled-1 expressed in African green monkey COS7 cells by luciferase reporter gene assay; format: cell-based
[9] = molecular target: Frizzled-2 (Homo sapiens) (UniProt Q14332); experiment: Antagonist activity at frizzled-2 (unknown origin) expressed in rat C-FIT cells assessed as inhibition of Wnt3a-stimulated blockade of migration at 10 nM incubated for 48 hrs and measured for 24 hrs following the scratch by scratch wound healing assay; format: functional, cell-based; settings: filed as antagonist, time 72.0 hrs
[10] = molecular target: Frizzled-2 (Mus musculus) (UniProt Q9JIP6); experiment: Antagonist activity at Wnt3a-stimulaed mouse frizzled-2 expressed in human HEK293superTOP flash cells incubated for 24 hrs by luciferase reporter gene assay; format: cell-based; settings: HEK293, filed as antagonist
[11] = molecular target: Frizzled-2 (Rattus norvegicus) (UniProt Q08464); experiment: Agonist activity at rat frizzled-2 expressed in CHO cells by luciferase reporter gene assay; format: cell-based
[12] = molecular target: T1, Frizzled-4 (Homo sapiens) (UniProt Q9ULV1); experiment: Antagonist activity at Wnt3a-stimulaed frizzled-4 (unknown origin) expressed in human HEK293superTOP flash cells incubated for 24 hrs by luciferase reporter gene assay; format: functional, cell-based; settings: HEK293
T1 sequence (whole entry): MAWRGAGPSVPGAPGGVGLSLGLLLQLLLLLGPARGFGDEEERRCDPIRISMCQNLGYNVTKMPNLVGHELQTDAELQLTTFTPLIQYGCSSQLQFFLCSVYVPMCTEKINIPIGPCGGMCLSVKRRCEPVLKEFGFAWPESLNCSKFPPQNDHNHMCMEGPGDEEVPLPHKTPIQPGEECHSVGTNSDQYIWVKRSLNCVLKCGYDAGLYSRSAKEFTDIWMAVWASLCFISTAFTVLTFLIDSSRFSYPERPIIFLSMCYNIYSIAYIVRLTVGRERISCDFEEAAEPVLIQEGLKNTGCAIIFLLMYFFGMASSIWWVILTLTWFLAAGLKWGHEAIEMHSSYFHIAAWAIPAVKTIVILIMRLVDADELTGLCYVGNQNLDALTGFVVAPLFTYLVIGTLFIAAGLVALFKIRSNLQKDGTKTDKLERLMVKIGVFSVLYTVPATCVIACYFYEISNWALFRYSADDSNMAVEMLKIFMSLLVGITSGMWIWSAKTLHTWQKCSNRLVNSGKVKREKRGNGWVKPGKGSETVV

Mus musculus [13] = experiment: Cardioprotective activity against myocardial infarction Swiss mouse model assessed as ventricular dilation at 6 ug/kg/day, sc via osmotic pumps for 5 weeks by macroscopic analysis; format: functional, organism-based; settings: dose 6.0 µg/kg/day
[14] = molecular target: Frizzled-1 (Homo sapiens) (UniProt Q9UP38); experiment: Antagonist activity at frizzled-1 (unknown origin) expressed in rat C-FIT cells assessed as inhibition of Wnt5a-stimulated cell differentiation changes by measuring alpha-smooth muscle actin gene expression at 10 nM by quantitative RT-PCR analysis; format: functional, cell-based; settings: filed as antagonist
Mus musculus [15] = experiment: Cardioprotective activity against myocardial infarction Swiss mouse model assessed as reduction in infarct area in heart at 6 ug/kg/day, sc via osmotic pumps for 2 to 5 weeks by immunohistochemical staining analysis; format: functional, organism-based; settings: dose 6.0 µg/kg/day, time 2-5 weeks
[16] = molecular target: Frizzled-2 (Homo sapiens) (UniProt Q14332); experiment: Antagonist activity at frizzled-2 (unknown origin) expressed in human HEK293superTOP flash cells incubated for 24 hrs by luciferase reporter gene assay; format: functional, cell-based; settings: HEK293
Rattus norvegicus = organism: Rattus norvegicus; experiment: Selectivity index, ratio of IC50 for Wnt3a-stimulated rat frizzled-1 expressed in human HEK293superTOPFlash cells to IC50 for Wnt3a-stimulated rat frizzled-2 expressed in human HEK293superTOPFlash cells; format: cell-based
[17] = molecular target: Frizzled-1 (Homo sapiens) (UniProt Q9UP38); experiment: Antagonist activity at Wnt3a-stimulaed human frizzled-1 expressed in human HEK293superTOP flash cells incubated for 24 hrs by luciferase reporter gene assay; format: functional, cell-based; settings: HEK293, filed as antagonist
[18] = molecular target: Frizzled-2 (Homo sapiens) (UniProt Q14332); experiment: Antagonist activity at Wnt3a-stimulated frizzled-2 (unknown origin) expressed in human HEK293superTOP flash cells incubated for 24 hrs by luciferase reporter gene assay; format: functional, cell-based; settings: HEK293, filed as antagonist
[19] = molecular target: Frizzled-2 (Rattus norvegicus) (UniProt Q08464); experiment: Agonist activity at rat frizzled-2 expressed in African green monkey COS7 cells by luciferase reporter gene assay; format: cell-based
Mus musculus [20] = experiment: Cardioprotective activity against myocardial infarction Swiss mouse model assessed as reduction in wet lung weight at 6 ug/kg/day, sc via osmotic pumps for 5 weeks; format: functional, organism-based; settings: dose 6.0 µg/kg/day
Mus musculus [21] = experiment: Cardioprotective activity against myocardial infarction Swiss mouse model assessed as increase in myofibroblast number at 6 ug/kg/day, sc via osmotic pumps for 5 weeks by immunohistochemical staining analysis; format: functional, organism-based; settings: dose 6.0 µg/kg/day
[22] = molecular target: Frizzled-5 (Homo sapiens) (UniProt Q13467); experiment: Antagonist activity at Wnt3a-stimulaed human frizzled-5 expressed in human HEK293superTOP flash cells at 10 nM incubated for 24 hrs by luciferase reporter gene assay; format: functional, cell-based; settings: HEK293
[23] = molecular target: Frizzled-2 (Homo sapiens) (UniProt Q14332); experiment: Antagonist activity at frizzled-2 (unknown origin) expressed in rat C-FIT cells assessed as inhibition of Wnt5a-stimulated cell differentiation changes by measuring alpha-smooth muscle actin gene expression at 10 nM by quantitative RT-PCR analysis; format: functional, cell-based; settings: filed as antagonist
[24] = molecular target: Frizzled-1 (Homo sapiens) (UniProt Q9UP38); experiment: Antagonist activity at Wnt3a-stimulaed frizzled-1 (unknown origin) expressed in human HEK293superTOP flash cells at 1 nM incubated for 24 hrs by luciferase reporter gene assay (reference value: 0%); format: functional, cell-based; settings: HEK293, filed as antagonist
[25] = molecular target: Frizzled-1 (Rattus norvegicus) (UniProt Q08463); experiment: Antagonist activity at rat frizzled-1 expressed in rat C-FIT cells assessed as inhibition of Wnt3a-stimulated blockade of migration at 10 nM incubated for 48 hrs and measured for 24 hrs following the scratch by scratch wound healing assay; format: cell-based; settings: filed as antagonist, time 72.0 hrs
[26] = molecular target: Frizzled-2 (Homo sapiens) (UniProt Q14332); experiment: Antagonist activity at Wnt3a-stimulaed frizzled-2 (unknown origin) expressed in human HEK293superTOP flash cells at 1 nM incubated for 24 hrs by luciferase reporter gene assay (reference value: 0%); format: functional, cell-based; settings: HEK293, filed as antagonist
Mus musculus [27] = experiment: Cardioprotective activity against myocardial infarction Swiss mouse model assessed as increase in alpha-SMA gene expression in heart at 6 ug/kg/day, sc via osmotic pumps for 5 weeks by qPCR analysis; format: functional, organism-based; settings: dose 6.0 µg/kg/day

Frizzled-2 (Homo sapiens), sequence (Q14332 24-565 limits assumed): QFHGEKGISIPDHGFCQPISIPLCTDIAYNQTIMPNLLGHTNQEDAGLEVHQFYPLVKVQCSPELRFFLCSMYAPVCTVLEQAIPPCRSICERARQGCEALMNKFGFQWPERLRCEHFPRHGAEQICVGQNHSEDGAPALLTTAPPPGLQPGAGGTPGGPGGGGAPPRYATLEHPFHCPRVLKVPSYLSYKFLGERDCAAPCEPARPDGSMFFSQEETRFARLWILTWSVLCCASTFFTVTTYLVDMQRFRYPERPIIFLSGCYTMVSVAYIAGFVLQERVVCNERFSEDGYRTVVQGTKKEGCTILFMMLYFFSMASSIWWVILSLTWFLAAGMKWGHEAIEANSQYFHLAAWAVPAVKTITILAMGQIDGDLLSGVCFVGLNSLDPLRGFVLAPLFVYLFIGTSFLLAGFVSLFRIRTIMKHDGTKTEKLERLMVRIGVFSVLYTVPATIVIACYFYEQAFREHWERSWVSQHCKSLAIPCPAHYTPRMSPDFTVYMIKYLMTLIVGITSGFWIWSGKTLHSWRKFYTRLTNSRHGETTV
Frizzled-1 (Homo sapiens), sequence (Q9UP38 70-647 limits assumed): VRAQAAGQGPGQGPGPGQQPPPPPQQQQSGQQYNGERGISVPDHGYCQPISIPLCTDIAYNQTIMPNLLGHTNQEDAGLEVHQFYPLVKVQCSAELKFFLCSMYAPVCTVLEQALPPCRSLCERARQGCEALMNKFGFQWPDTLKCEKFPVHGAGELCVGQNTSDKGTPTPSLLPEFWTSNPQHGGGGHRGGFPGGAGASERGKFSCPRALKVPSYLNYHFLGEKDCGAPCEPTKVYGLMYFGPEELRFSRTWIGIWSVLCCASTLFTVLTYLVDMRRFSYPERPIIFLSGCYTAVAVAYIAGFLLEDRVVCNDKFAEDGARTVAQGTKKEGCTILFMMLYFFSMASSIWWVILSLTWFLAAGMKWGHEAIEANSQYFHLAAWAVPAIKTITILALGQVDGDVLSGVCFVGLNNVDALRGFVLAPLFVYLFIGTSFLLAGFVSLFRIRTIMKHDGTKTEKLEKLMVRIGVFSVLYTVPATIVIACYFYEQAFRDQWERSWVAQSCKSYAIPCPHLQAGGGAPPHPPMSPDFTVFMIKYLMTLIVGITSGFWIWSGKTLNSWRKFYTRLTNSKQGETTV
Frizzled-1 (Rattus norvegicus), sequence (Q08463 whole entry): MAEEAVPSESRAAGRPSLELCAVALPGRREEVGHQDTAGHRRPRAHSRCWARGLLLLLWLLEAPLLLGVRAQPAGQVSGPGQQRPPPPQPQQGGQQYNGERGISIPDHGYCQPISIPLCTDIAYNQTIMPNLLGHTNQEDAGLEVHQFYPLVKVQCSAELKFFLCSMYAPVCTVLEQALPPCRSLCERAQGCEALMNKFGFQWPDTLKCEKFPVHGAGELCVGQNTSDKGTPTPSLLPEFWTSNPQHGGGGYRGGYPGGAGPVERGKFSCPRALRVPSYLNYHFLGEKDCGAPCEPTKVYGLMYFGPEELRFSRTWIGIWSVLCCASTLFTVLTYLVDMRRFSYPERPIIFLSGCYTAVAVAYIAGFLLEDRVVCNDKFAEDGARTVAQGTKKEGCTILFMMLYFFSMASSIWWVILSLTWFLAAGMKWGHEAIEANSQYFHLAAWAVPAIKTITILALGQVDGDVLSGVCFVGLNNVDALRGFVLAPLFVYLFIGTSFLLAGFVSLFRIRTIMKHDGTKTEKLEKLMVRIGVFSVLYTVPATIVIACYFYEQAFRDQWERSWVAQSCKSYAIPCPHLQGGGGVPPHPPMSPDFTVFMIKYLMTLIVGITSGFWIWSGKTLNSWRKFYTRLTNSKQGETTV
Frizzled-2 (Rattus norvegicus), sequence (Q08464 29-570 limits assumed): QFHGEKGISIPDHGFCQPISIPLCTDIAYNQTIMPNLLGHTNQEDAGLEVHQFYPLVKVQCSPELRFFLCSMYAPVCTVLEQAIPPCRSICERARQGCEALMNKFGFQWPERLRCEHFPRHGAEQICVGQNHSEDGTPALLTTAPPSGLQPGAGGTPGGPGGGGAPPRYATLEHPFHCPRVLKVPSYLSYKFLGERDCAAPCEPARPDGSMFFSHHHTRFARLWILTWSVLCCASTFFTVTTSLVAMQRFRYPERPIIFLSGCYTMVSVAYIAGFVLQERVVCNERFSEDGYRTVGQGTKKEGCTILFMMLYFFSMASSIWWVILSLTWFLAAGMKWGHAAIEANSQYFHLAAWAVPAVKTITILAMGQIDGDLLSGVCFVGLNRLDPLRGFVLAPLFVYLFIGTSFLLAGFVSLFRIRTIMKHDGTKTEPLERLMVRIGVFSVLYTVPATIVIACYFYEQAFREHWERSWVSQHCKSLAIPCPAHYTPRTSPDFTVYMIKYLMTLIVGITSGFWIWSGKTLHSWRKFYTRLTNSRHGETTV
Frizzled-5 (Homo sapiens), sequence (Q13467 whole entry): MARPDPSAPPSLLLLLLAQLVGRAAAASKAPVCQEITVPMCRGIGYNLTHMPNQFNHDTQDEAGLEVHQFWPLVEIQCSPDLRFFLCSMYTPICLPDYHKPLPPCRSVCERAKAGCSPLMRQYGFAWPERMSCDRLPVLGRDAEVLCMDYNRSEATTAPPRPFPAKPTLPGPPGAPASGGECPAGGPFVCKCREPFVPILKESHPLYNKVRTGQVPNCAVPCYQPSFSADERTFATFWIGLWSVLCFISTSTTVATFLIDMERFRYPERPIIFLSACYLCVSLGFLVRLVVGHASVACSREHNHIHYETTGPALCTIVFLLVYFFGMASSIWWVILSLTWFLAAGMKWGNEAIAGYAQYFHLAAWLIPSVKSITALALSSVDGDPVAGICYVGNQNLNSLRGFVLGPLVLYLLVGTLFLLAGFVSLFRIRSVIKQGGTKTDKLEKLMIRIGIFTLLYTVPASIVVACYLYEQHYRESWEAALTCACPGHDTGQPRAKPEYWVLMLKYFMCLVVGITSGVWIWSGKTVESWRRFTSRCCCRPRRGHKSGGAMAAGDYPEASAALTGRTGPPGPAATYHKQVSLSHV
Frizzled-1 (Mus musculus), sequence (O70421 whole entry, looked up): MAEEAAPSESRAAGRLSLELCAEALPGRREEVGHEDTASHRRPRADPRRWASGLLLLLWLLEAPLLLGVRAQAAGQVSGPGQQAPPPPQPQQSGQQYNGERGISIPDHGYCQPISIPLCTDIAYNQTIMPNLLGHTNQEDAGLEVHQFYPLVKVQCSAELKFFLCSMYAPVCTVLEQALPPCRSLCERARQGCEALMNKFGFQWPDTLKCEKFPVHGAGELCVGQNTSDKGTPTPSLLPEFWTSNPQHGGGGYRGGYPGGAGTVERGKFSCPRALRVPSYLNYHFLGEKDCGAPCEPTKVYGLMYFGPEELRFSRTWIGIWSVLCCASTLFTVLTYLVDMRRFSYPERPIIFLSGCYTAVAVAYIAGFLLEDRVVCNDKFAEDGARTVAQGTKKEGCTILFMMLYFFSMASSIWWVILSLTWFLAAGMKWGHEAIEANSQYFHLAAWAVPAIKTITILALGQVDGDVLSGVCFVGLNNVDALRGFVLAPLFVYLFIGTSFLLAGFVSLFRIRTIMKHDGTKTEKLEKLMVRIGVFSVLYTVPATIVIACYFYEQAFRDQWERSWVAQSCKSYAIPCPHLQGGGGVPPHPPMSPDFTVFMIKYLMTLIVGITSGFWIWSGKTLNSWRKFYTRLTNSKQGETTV
Frizzled-2 (Mus musculus), sequence (Q9JIP6 whole entry, looked up): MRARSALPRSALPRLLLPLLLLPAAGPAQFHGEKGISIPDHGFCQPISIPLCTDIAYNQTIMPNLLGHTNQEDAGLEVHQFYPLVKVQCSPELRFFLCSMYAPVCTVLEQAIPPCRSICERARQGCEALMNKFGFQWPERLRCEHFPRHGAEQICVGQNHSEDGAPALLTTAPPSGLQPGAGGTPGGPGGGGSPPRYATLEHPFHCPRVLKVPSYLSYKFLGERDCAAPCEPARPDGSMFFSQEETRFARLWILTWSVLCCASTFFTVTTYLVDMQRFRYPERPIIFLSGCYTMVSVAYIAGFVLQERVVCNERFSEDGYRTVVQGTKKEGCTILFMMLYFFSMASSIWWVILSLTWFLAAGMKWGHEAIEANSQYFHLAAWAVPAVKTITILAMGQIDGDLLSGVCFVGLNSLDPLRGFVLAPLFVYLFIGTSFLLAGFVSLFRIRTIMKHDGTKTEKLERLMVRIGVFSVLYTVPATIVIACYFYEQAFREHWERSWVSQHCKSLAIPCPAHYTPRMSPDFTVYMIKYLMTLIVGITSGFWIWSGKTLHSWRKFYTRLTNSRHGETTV

CSCC[C@H](NC(=O)CNC(=O)[C@H](CCC(=O)O)NC(=O)[C@H](CO)NC(=O)[C@@H](NC(=O)[C@H](CCCCN)NC(=O)[C@H](CC(N)=O)NC(=O)[C@H](CS)NC(C)=O)[C@@H](C)O)C(=O)N[C@@H](CC(=O)O)C(=O)NCC(=O)N[C@@H](CS)C(=O)N[C@@H](CCC(=O)O)C(=O)N[C@@H](CC(C)C)C(N)=O (Ac-CNKTSEGMDGCEL-NH2)
inhibition [1]: 100%
Activity (Mus musculus [2]): Active
inhibition [3]: Active
inhibition [4]: inactive
Activity [5]: inactive
inhibition [6]: Active
Activity (Mus musculus [7]): Active
Activity [8]: inactive
inhibition [9]: 100%
inhibition [10]: Active
Activity [11]: inactive
inhibition [12]: inactive
Activity (Mus musculus [13]): Active
inhibition [14]: 100%
Activity (Mus musculus [15]): Active
inhibition [16]: inactive
Ratio IC50 (Rattus norvegicus): 100
inhibition [17]: Active
inhibition [18]: Dose-Dependent Effect
Activity [19]: inactive
Activity (Mus musculus [20]): Active
Activity (Mus musculus [21]): Active
inhibition [22]: inactive
inhibition [23]: 100%
inhibition [24]: 18%
inhibition [25]: 100%
inhibition [26]: 61.2%
Activity (Mus musculus [27]): Active
